Results reported in US5157032A, “Mixed ligand complexes and uses thereof as binding agents and probes to DNA” (The Trustees of Columbia University In The City of New York, priority 1990, dated 1992).
Where “and” joins values, the source holds several entries; their conditions need not be identical. Identical values can stand only once. Entries after “also recorded” stand apart in the source; their conditions may differ. Like-named read-outs stand apart in the source and are kept apart here.

Tests used:
calf thymus DNA [1] = assay: Absorption titration with calf thymus DNA (half-reciprocal, hypochromism); assay type: binding; settings: in words; for binding to DNA: absorption changes too small for Kb
Description: In plots of [DNA]/(εA -εF) versus [DNA], Kb is given by the ratio of the slope to intercept.

calf thymus DNA [2] = assay: Equilibrium dialysis of racemic complexes against calf thymus DNA (Scatchard, dialysate CD); assay type: binding; set-up: Km × 10) equilibrium dialysis (intrinsic binding constant Kb): scale not given here; settings: for Site size: fit to McGhee and von Hippel equation; for binding affinity for DNA: comparative; for Km × 10) equilibrium dialysis (intrinsic binding constant Kb): 5 mM Tris, 50 mM NaCl, pH 7.5, standard deviation in parentheses
Method: Equilibrium Dialysis: Equlibrium dialysis of the reacemic metal complexes was perforemd against calf-thymus DNA using procedures described previously. (74) The buffer used was 5 mM Tris, 50 mM NaCl at pH 7.5. Samples were agitated on a shaker bath during equilibration which occurred after three to five days, as determined by control samples containing no DNA. After equilibration, volumes of liquid inside and outside the dialysis bags were determined (approximately 1 and 3 mls, respectively) and circular dichroism of the dialysate was meaxured on a Jasco J-40 spectropolarimeter. Final ruthenium concentration inside and outside the bags were measured by visible absorbance. Data anaylsis was performed on a VAX-780 using non-linear least squares analysis.
Equilibrium Dialysis: Equilibrium binding constants for the metal complexes with DNA may be determined classically by equilibrium dialysis. Calf thymus DNA was dialyzed against the series of mixed ligand complexes using a broad range of ruthenium concentrations. […] The results have been plotted according to Scatchard (88), where r is the ratio of bound metal to DNA-phosphate concentration, and cf is the concentration of free metal complex. The data were fit by non-linear least squares analysis to the McGhee and von Hippel equation (8945) governing random non-cooperative binding to a lattice,
where r is the ratio of bound concentration of ruthenium to the concentration of DNA-phosphate, cf is the concentration of ruthenium free in soltuion, Kb the intrinsic binding constant, and the integer /, which measures the degree of anti-cooperativeity, is the size of a binding site in base pairs. The curves shown reflect the best fit after variation of two parameters: the intrinsic binding constant, Kb, and binding stie size, /. For those complexes were cooperatively was observed, the equation (89) incorporating a cooperativity parameter was used.
Equilibrium dialysis experiments additionally offer the opportunity to examine any enantiomeric selectivities associated with binding. After dialysis of the DNA against the racemic mixture, optical activity observed in the dialysate refelects an enrichment in the dialysate in the less favored enantiomer. For most of the complexes, optical activity was found in the dialysate. Values for the extent of enantiomeric selectivity could not be quanitated in the absence of determinations of DE and assignments of absolute configuration. Assuming that the signs of the circular chroism in the ultraviolet ligand bands are the same for the these ligands as that for the parent phenanthroline complex, (90) we have assigned the absolute configuration of these complexes by comparison to spectra for enantiomers of Ru(phen)3^2+ and have compared levels of enantioselectivity qualitatively through measurements of circular dichroic intensity per rutheium bound. Based upon these assumptions, we find enantionmeric selectivities for the polyridyl complexes to reflect an enrichment in the isomer in the dialysate and the preferential binding of the isomer to the right-handed DNA. This observation is consistent with the preferential intercalation of isomers found earlier for Ru(phen)3^2+ in right-handed B-DNA. (63) We may also compare relative enantioselectivities for different ancillary ligands. […] The same comparison may be seen qualitatively between Ru(phen)2 DIP^2+ and Ru(bpy)2 DIP^2+.

pBR322 DNA = assay: Unwinding of supercoiled pBR322 DNA (topoisomerase I assay); settings: for EC50: read-out: Unwinding concentration, needed to unwind 11 of 22 supercoils, [DNA] 47 μM for phi complexes, 31.5 μM others, 60 min; for Unwinding Angle: per molecule of bound complex
[3] = system: CEM cell line (T4 lymphocytes); assay: Growth inhibition of uninfected CEM cells in the anti-HIV screen (XTT); assay type: cell-based
Method: (§1) 1. […] lymphocytes (CEM cell line) are exposed to HIV at a virus to cell ratio approximately 0.05, and plated along with noninfected control cells in 96-well microtiter plates.
(§2) 2. Candidate agent is dissolved in dimethyl sulfoxide (unless otherwose instructed), then diluted 1:200 in cell culture medium. Further dilutions (half-log10) are prepared before adding to an equal volume of medium containing either infected or noninfected cells.
(§3) 3. Cultures are incubated at 37° in a 5% carbon dioxide atmosphere for 6 or 7 days.
(§4) 4. The tetrazolium salt, XTT, is added to all wells, and cultures are incubated to allow formazan color development by viable cells.
(§5) 5. Individual wells are analyzed spectrophotometrically to quantitate formazan production, and in addition are viewed microscopically for detection of viable cells and confirmation of protective activity.
(§6) 6. Drug-treated virus-infected cells are compared with drug-treated noninfected cells and with other appropirate controls (untreated infected and untreated noninfected cells, drug-containing wells without cells, etc.) on the same plate.
(§7) The Graphic Results Summary Section: FIGS. 23-33 display a plot of Log 10 of the sample's concentration (as μg/mL or molar) against the measured test values expressed as a percentage of uninfected, untreated control values. The solid line connecting the diamond symbols depicts the percentage of surviving HIV-infected cells treated with your sample (at the indicated onccentration) relative to uninfected, untreated cotrols. This line expressed the in-vitro anti-HIV activity of your sample. The dashed line connecting the square symbols depicts the percentage of surviving uninfected cells treated with your sample relative to the same uninfected, untreated controls. This line expresses the in-vitro growth inhibitory properties of your sample. The viral cytophathic effect in this particular experiment is indicated by a dotted reference line. […] Values of this parameter less than 50% are considered acceptable in the current protocol. Reference lines at 0% and 50% are depicted as alternating dots and dashes.

HIV = assay type: cell-based
Method: The procedure used For testing agents active against (HIV) is designed to detect agents acting at any stage of the virus reproductive cycle. The assay basically involves the killing of T4 lympnocytes by HIV. Small amounts of HIV are added to cells, and at least two complete cycles of virus reproduction are necessary to obtain the required cell killing. […] The system is automated in several ceatures to accomodate large numbers of candidate agents, and is generally designed to detect anti-HIV activity. […]. Also, while every attempt has been made to reduce variability, precise values for EC50, IC50, and Therapeautic Index are not possible. All tests are compared with a positive (AZT-treated) control done at the same time under identical conditions.
as §1, §2, §3, §4, §5, §6
7. Data are reviewed in comparison with other tests done at the same time, and a determinatin about activity is made.
Several complexes were tested for use as agents active against (HIV). […]
as §7

calf thymus DNA [4] = assay: Spectroscopic properties (absorption, emission, lifetime) on binding to calf thymus DNA; settings: 7 μM Ru, 40:1 nucleotide/metal, 20° C.
Method: Instrumentation: NMR spectra were recorded on a Varian VXR-300MHz spectormeter. FABS were performed using a VG Analytical 7070EQ Mas Spectrometer (78), and elemental analyses were done by Galbraith Laboratories in Nashville, Tenn. UV-Visible absorbance spectal were recorded on a Varian CARY-219 absorbance spectorphotometer. Extinction coefficients for the compounds were determined versus ruthenium concentrations obtained by atomic absorption spectroscopy with known ruthenium standards. [Ru(bpy)3 ]Cl2 solutions were also employed for these determinations as an internal standard. A varian AA-875 atomic absorption spectrophotometer was used for these determinations.
Emission spectra were measured on a Perkin-Elmer LS-5 fluorescence spectrometer. The samples were excited at their corresponding isosbestic points. All the measurements were made at 20° C. in a thermostatted cuvette holder with 3 nm entrance slit and 10 nm exit slit. Ruthenium solutions employed were 7 μM in concentration and claf thymus DNA was added to a ration of 40:1 nucleotide/metal; ruthenuim-DNA soltuions were allowed to incubate for 15 minutes before enhanced spectra were recorded. The emission enhancement factors were measured by comparing the intensitites at the emission spectral mixima in the absence ad presence of DNA, under similar conditions.
The limunescence lifetime measurements were done on a PRA SPC (single photon countining) spectometer with some minor modifications. The samples were excited with a nitrogen filled tnynratron gated flash lamp and the data were collected using a Tracor Northern 1710 multichannel analyser. The data were then transferred to a PDP-11/03 computer and deconvoluted with PRA software. […] concentrated solution of DNA (5mM DNA-phosphate) in buffer was added to a solution of the metal complex (4 μM) in buffer and allowed to equilibrate. Lifetimes of the samples were measured 0.5 hr after the metal complexes were mixed with DNA. All measurements were made at 20° C. and under air saturated conditions.
Furthermore, for all the complexes, this electronic transition is perturbed on binding to DNA.

[5] = Table 12, dose 1 of 8, printed 9.14 × 10- μg/ml
[6] = Table 12, dose 2 of 8, printed 1.82 × 10+ μg/ml
[7] = Table 12, dose 3 of 8, printed 3.65 × 10+ μg/ml
[8] = Table 12, dose 4 of 8, printed 7.31 × 10+ μg/ml
[9] = Table 12, dose 5 of 8, printed 1.46 × 10+ μg/ml
[10] = Table 12, dose 6 of 8, printed 2.92 × 10+ μg/ml
[11] = Table 12, dose 7 of 8, printed 5.85 × 10+ μg/ml
[12] = Table 12, dose 8 of 8, printed 1.17 × 10+ μg/ml

N=C1C(=N)c2ccccc2-c2ccccc21.N=C1C(=N)c2ccccc2-c2ccccc21.[Ru+2].c1ccc(-c2ccccn2)nc1 [Ru(phi)2 (bpy)^2+]
hypochromism / absorption change on DNA addition (calf thymus DNA [1]): greatest change in absorption | Site size (calf thymus DNA [2]): cooperative | aggregation in solution (calf thymus DNA [2]; in words): tend to agfregate in solution | binding curve type (cooperativity) (calf thymus DNA [2]; in words): cooperatiove binding | binding affinity for DNA (calf thymus DNA [2]; in words, listed as Ru(phi) 2 bpy^2+): in the range of those for Ru(phen)2phi^2+ | binding affinity for DNA (calf thymus DNA [2]; in words, listed as Ru(phi)2 bpy^2+): decreased affinity for DNA relative to Ru(bpy)2 ph^2+ | unwinding of the helix (pBR322 DNA; in words): lower concentration | EC50 (pBR322 DNA): 0.6 µM

[Rh+3].c1ccc(-c2ccnc3c2ccc2c(-c4ccccc4)ccnc23)cc1.c1ccc(-c2ccnc3c2ccc2c(-c4ccccc4)ccnc23)cc1.c1ccc(-c2ccnc3c2ccc2c(-c4ccccc4)ccnc23)cc1 [Rh(DIP)3]
Uninfected Culture Response(%) [3, 5]: 92.9% | Uninfected Culture Response(%) [3, 6]: 91.8% | Uninfected Culture Response(%) [3, 7]: 82.4% | Uninfected Culture Response(%) [3, 8]: 55.2% | Uninfected Culture Response(%) [3, 9]: -.9% | Uninfected Culture Response(%) [3, 10]: -1.6% | Uninfected Culture Response(%) [3, 11]: -.7% | Uninfected Culture Response(%) [3, 12]: -1.5% | Uninfected Culture Response(%) ([3]; Tables 2-5, dose 1 of 8, 1.25 × 10- [sic] μg/ml): 110.1% and 100.3% and 133.6% and 105.1% | Uninfected Culture Response(%) ([3]; Tables 2-5, dose 2 of 8, 1.25 × 10- [sic] μg/ml): 113.1% and 98.9% and 131.0% and 82.1% | Uninfected Culture Response(%) ([3]; Tables 2-5, dose 3 of 8, 1.25 × 10- [sic] μg/ml): 106.0% and 89.3% and 108.6% and 65.1% | Uninfected Culture Response(%) ([3]; Tables 2-5, dose 8 of 8, 1.25 × 10+ [sic] μg/ml): -6% and -1.6% and -6.8% and -2.1% | Uninfected Culture Response(%) ([3]; Tables 6-11, dose 1 of 8): 101.9% and 100.5% and 96.6% and 96.5% and 100.2% and 101.1% | Uninfected Culture Response(%) ([3]; Tables 6-11, dose 2 of 8): 94.1% and 96.9% and 97.4% and 80.8% and 102.4% and 95.3% | Uninfected Culture Response(%) ([3]; Tables 6-11, dose 3 of 8): 96.8% and 102.2% and 101.8% and 86.9% and 115.3% and 110.6% | Uninfected Culture Response(%) ([3]; Tables 6-11, dose 4 of 8): 95.5% and 100.6% and 98.1% and 98.3% and 121.1% and 108.9% | Uninfected Culture Response(%) ([3]; Tables 6-11, dose 5 of 8): 97.9% and 104.2% and 101.3% and 88.4% and 113.8% and 93.7% | Infected Culture Response(%) (HIV; [5]): 12.4% | Infected Culture Response(%) (HIV; [6]): 18.5% | Infected Culture Response(%) (HIV; [7]): 64.7% | Infected Culture Response(%) (HIV; [8]): 45.4% | Infected Culture Response(%) (HIV; [9]): -.3% | Infected Culture Response(%) (HIV; [10]): -.9% | Infected Culture Response(%) (HIV; [11]): -1.8% | Infected Culture Response(%) (HIV; [12]): -1.8% | Infected Culture Response(%) (HIV; Tables 6-11, dose 3 of 8, 1.17 × 10- [sic] μg/ml): 8.0% | activity in inhibiting the activity of HIV (HIV; in words): moderately active

[Ru+2].c1ccc(-c2ccccn2)nc1.c1ccc(-c2ccccn2)nc1.c1cnc2c(c1)ccc1cccnc12 [Ru(bpy)2 (phen)^2+]
hypochromism / absorption change on DNA addition (calf thymus DNA [1]): litle hypochromic effect | binding to DNA (calf thymus DNA [1]): bound very weakly | Emission Enchantment (I/Io) (calf thymus DNA [4]): 1.12 I/Io | Km × 10) equilibrium dialysis (intrinsic binding constant Kb) (calf thymus DNA [2]): 0.7(.07) × 10 | Site size (calf thymus DNA [2]): 10-14 base pairs | EC50 (pBR322 DNA): 69 µM

[Ru+2].c1ccc(-c2ccccn2)nc1.c1cnc2c(c1)ccc1cccnc12.c1cnc2c(c1)ccc1cccnc12 [Ru(phen)2 (bpy)^2+]
Emission Enchantment (I/Io) (calf thymus DNA [4]): 1.43 I/Io | Site size (calf thymus DNA [2]): 5-7 base pairs | Unwinding Angle (pBR322 DNA): 18 degrees | EC50 (pBR322 DNA): 11 µM

N=C1C(=N)c2ccccc2-c2ccccc21.[Ru+2].c1ccc(-c2ccccn2)nc1.c1ccc(-c2ccccn2)nc1 [Ru(bpy)2 (phi)^2+]
hypochromism / absorption change on DNA addition (calf thymus DNA [1]): greatest change in absorption | Km × 10) equilibrium dialysis (intrinsic binding constant Kb) (calf thymus DNA [2]): 160.(17) × 10 | Site size (calf thymus DNA [2]): 4 base pairs | Unwinding Angle (pBR322 DNA): 17 degrees | EC50 (pBR322 DNA): 1.1 µM

O=[N+]([O-])c1cc2cccnc2c2ncccc12.O=[N+]([O-])c1cc2cccnc2c2ncccc12.O=[N+]([O-])c1cc2cccnc2c2ncccc12.[Ru+2] [Ru(5-NO2phen)3^2+, [Ru(5-nitrophenanthroline)3)]Cl2]
binding to DNA (calf thymus DNA [1]): bound very weakly | Site size (calf thymus DNA [2]): 8-12 base pairs | binding affinity for DNA (calf thymus DNA [2]; in words): bind only poorly to DNA; also recorded: much lower than would be expected based upon their solvent accessible surfaces
